# According to article PMC6101970 (Oncogene, 2018):
# Target: ATR/ATRIP (human) (Homo sapiens, UniProt Q13535)
# Assay: HTRF kinase assay, GST-cMyc-p53 Ser15 phosphorylation
# Format: biochemical
# Sequence of ATR/ATRIP (human) (Q13535 whole entry): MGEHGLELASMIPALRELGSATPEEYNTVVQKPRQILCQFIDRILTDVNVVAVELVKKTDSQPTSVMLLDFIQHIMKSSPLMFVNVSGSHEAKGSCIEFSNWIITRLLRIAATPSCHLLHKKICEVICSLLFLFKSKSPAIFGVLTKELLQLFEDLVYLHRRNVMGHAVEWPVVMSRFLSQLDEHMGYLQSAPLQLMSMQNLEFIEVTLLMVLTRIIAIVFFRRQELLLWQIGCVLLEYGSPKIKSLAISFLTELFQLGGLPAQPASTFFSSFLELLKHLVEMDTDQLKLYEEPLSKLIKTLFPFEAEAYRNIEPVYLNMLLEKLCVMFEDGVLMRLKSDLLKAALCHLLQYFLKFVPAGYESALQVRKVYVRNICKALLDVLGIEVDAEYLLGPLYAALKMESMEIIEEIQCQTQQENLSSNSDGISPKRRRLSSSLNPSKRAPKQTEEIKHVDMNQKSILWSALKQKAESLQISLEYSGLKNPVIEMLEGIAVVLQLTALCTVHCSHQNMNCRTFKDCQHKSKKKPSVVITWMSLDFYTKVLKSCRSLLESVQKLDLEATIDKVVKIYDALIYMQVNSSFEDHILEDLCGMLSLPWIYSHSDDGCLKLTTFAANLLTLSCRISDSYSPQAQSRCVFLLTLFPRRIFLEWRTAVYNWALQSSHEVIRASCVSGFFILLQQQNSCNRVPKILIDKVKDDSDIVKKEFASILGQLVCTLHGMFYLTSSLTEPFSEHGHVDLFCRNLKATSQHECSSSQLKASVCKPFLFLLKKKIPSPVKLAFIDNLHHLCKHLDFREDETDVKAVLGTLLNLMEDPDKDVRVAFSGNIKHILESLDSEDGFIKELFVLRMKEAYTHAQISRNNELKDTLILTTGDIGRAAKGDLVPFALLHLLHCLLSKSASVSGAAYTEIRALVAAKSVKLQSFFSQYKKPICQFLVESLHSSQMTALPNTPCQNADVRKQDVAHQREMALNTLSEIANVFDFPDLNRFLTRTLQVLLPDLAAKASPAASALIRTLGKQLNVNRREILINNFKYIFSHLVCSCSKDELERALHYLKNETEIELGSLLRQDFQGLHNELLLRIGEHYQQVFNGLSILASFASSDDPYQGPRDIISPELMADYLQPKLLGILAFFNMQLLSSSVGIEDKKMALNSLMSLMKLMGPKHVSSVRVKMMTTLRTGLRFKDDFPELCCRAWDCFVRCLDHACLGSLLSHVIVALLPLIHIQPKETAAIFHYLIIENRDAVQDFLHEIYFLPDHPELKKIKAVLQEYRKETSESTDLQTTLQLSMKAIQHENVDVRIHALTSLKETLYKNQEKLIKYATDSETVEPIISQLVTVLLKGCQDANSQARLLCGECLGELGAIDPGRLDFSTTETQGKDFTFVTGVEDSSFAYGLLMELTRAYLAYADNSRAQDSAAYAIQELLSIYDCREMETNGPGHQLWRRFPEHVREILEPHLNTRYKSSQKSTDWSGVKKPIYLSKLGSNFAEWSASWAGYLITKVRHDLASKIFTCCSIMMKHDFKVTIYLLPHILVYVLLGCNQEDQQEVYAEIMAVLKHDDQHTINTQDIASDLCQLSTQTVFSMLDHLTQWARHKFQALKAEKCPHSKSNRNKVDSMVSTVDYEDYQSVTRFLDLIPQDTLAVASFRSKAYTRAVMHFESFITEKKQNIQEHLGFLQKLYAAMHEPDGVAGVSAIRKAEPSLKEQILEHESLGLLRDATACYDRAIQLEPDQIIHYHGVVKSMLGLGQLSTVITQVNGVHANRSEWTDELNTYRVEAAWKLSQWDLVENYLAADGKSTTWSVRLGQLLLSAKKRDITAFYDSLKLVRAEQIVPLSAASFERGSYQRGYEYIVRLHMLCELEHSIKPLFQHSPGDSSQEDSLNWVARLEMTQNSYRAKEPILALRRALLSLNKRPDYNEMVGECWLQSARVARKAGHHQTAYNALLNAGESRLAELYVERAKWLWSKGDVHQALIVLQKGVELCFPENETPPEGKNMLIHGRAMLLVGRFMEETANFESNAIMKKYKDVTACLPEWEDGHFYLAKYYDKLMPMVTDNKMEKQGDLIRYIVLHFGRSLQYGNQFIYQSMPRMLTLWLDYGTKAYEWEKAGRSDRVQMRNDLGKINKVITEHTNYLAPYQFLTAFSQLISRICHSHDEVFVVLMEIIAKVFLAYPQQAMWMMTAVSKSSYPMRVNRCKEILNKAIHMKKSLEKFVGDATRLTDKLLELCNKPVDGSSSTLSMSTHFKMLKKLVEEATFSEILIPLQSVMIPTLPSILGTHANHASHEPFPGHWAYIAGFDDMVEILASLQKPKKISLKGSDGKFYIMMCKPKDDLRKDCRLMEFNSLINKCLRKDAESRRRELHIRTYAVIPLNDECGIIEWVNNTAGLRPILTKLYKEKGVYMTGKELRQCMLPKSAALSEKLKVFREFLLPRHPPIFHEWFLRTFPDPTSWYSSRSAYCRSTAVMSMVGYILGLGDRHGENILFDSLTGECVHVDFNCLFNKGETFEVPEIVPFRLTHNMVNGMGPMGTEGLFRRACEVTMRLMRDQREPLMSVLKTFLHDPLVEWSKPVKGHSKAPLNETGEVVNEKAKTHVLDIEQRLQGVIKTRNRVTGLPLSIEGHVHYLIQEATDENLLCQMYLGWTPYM
# Sequence of ATR/ATRIP (human) (Q8WXE1 whole entry partner): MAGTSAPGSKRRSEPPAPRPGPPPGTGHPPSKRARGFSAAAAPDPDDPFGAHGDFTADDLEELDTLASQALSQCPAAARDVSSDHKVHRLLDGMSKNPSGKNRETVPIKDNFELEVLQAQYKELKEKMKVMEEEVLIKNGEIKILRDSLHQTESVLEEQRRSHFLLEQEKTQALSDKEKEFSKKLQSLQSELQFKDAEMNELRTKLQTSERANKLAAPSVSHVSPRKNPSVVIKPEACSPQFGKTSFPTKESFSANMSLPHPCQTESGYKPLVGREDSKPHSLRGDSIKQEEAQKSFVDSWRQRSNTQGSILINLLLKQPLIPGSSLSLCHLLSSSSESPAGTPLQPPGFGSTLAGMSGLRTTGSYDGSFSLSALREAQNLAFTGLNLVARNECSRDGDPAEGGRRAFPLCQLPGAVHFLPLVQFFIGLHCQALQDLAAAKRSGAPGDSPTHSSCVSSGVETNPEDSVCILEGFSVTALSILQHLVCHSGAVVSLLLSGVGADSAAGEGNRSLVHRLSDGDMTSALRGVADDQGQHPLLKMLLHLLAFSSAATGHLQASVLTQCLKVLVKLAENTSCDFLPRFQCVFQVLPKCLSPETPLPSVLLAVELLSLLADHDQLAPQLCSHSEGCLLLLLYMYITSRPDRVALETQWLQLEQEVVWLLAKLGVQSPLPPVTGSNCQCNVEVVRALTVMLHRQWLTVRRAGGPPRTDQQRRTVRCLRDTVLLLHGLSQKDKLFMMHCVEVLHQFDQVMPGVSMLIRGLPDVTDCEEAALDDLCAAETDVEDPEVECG
row,Structure (SMILES),IC50 [µM]
1,Cc1sc2c(c1C)C(c1ccc(Cl)cc1)=N[C@@H](CC(=O)OC(C)(C)C)c1nnc(C)n1-2 [JQ1],> 10
2,COc1nnc2ccc(N3CCC(c4ccc(OCCN5CCN(C)C(=O)[C@H]5C)cc4)CC3)nn12 [AZD5153],> 10
